Reference: patent US5801017A, “Production of recombinant factor Xa inhibitor of leech Hirudo medicinalis” (Bio-Technology General Corp., priority 1994, dated 1998)
Several values for one entry are separate records, joined by “and”; a condition that tells them apart may be missing. Equal values may be shown once. Read-outs that look alike come from different tables or passages of the source.

Tests used:
[1] = system: thrombin; assay: inhibition of thrombin (Chromozyme TH); assay type: biochemical; conditions: substrate Chromozyme TH
Method: (§1) Inhibition of bovine trypsin by naturally occurring FXaI was calculated following the classical dose response method. Ki values were obtained by plotting the percentage of activity of FXaI (determined by the calorimetric assay described below) against the ratio of the concentrations of inhibitor and enzyme. The calorimetric assay was performed using 80 μM Chromozyme TH (Pentapharm, Switzerland) as substrate in 10 mM Tris-HCl, 10 mM Hepes (pH 7.8), 100 mM NaCl, 0.1% PEG 6000 at 25° C. in the presence of 3.83 or 4.27 nM bovine trypsin. Inhibitor and enzyme were preincubated for 10 min at 25° C. before adding the substrate.
(§2) Plasmin and thrombin were not inhibited by naturally occurring FXaI in a similar assay as that for trypsin. In the case of thrombin, the substrate used was the same as that used for trypsin; in the case of plasmin, S2251 was used as substrate.

[2] = system: FXa; assay: chromogenic FXa inhibitory activity assay (hydrolysis of CHG); assay type: biochemical, bovine
Method: Increasing amounts of FXaI purified on Mono-Q were preincubated for 3 minutes with 2 pmol bovine FXa in a 1 ml cuvette. The initial rate of hydrolysis of the substrate CHG was monitored at 405 nm (see Example 2). Fraction 47 was the peak fraction of a particular purification experiment.
The assay of FXa inhibitory activity is based on the inhibition of the FXa-mediated hydrolysis of the chromogenic substrate methoxycarbonyl-D-cyclohexylglycyl-glycyl-arginyl p-nitroanilide (CHG) as described below.
The appropriate substrate concentration was determined from the molar absorbance which is 8210 at 342 nm. The reaction mixture contains 50 mM Tris-HCl pH 8.2, 5 mM CaCl2, 200 mM NaCl, 0.1% PEG, 40 μM substrate, and approximately 2 nM FXa. The FXa concentration is determined more precisely from the initial (first 20 seconds) rate of CHG hydrolysis at 40 μM in the absence of inhibitor based on the kinetic parameters mentioned above.
Inhibition of the increase in absorbance may be observed in the presence of the FXa inhibitory activity of an FXa inhibitor such as FXaI of the present invention. The inhibitor concentration is the difference in absorbance between the reaction in the presence and absence of inhibitor multiplied by the FXa concentration.
This determination assumes the formation of a 1:1 enzyme-inhibitor complex, and further assumes that the dissociation constant is low enough (i.e., tight binding) to enable essentially total binding of the inhibitor (FXaI) to the enzyme (FXa). In fact, the saturation shape of the dose-response curve (FIG. 3) provides evidence that a finite and not negligible dissociation of the inhibitor-enzyme complex occurs under these conditions. The dose response curve is represented by the degree of inhibition versus FXaI concentration and is further described in Section 5.2.
The degree of dissociation of the FXa-FXaI complex is characterized by the inhibition constant (Ki) and may be determined from the inhibited velocity of the hydrolysis of the chromogenic substrate CHG. […] The Ki of naturally occurring FXa in the chromogenic assay is about 9 nM.
The determination of inhibitor concentration determined by the above method is therefore probably underestimated. It was found useful to define the FXaI concentration as the protein concentration (IC50) required to obtain a constant degree of inhibition, usually 50% and to define the amount causing 50% inhibition under these reaction conditions to be 1 milliunit (mu) or 1 pmol. IC50 is generally higher than Ki, and depending on the type of inhibition, can be shown to depend variously on substrate concentration, Ki, Km and other factors (Segel, I. (1974) "Enzyme Kinetics", Wiley Interscience). In fact, the range of values of IC50 was determined to be about 10-20 nM.
The FXaI activity assay used to determine concentration during purification and characterization was performed in an Elisa Titertek Twin Reader, Type 380 (EF LAB). The final activity measurement of purified protein was also performed in a Phillips (model PU 8720) UV/Vis scanning spectrophotometer.

[3] = system: Plasmin; assay: inhibition of plasmin (S2251); assay type: biochemical; conditions: substrate S2251
Method: as §1, §2

[4] = target: FXa in a prothrombinase complex; assay: FXa inhibitory activity in the prothrombinase complex (thrombin generation); assay type: biochemical
Method: The inhibitory activity of FXaI may also be assayed by its effect on FXa in a prothrombinase complex. The phospholipid used was rabbit brain cephalin (Sigma). The contents of one vial, suspended in 1 ml 0.15M NaCl were diluted 1:40 in the reaction mixture, i.e. 2.5 μl/100 μl. The concentrations of the other components were: FXa 250 pM, prothrombin 2.67 μM, FVa 4.2 nM and Ca^++ 1 mM in 20 mM Tris-HCl pH 7.4/150 mM NaCl/0.1% polyethylene glycol 6000. Following 10 minutes of preincubation at 37° C., the reaction was initiated by the addition of prothrombin. Aliquots were removed at various time intervals. The reaction was stopped by 10 mM EDTA and aliquots were kept on ice until assayed. The inhibition of FXa by a FXa inhibitor (e.g. FXaI of the present invention) was observed as the effect of FXaI on the generation of thrombin from prothrombin at 37° C. The amount of thrombin generated was assayed using 80 μg of the synthetic thrombin p-nitroanilide substrate S-2238 (KabiVitrum, Sweden) at 23° C.

[5] = pharmacokinetic study in mice, ex vivo APTT; set-up: species or system Female Balb/c mice; conditions: for Mean APTT: ex vivo, i.v. 5.25 μg/mouse
Method: The clearance of FXaI from the blood of female mice was monitored over a period of 30 minutes by assessing the ex vivo APTT (see FIG. 4) at the time points indicated. The amount of FXaI is expressed as μg FXaI [Macart and Gerbaut, Clin. Chim. Acta 122:93-101 (1982)], determined from a calibration curve consisting of in vitro APTT time versus inhibitor concentration as shown in FIG. 5B.
A preliminary pharmacokinetic experiment was performed in order to assess the clearance rate of FXaI from the circulatory system. Female Balb/c mice (20-25 gm body weight) were injected intravenously with purified FXaI (isoform A; 5.25 μg protein/mouse in 0.2 ml saline). Blood samples were drawn into 1/10 v/v 3.8% citrate at 1, 3, 10 and 30 min after injection. It was possible to obtain only one blood sample from each mouse and therefore each timepoint is from a different mouse. The plasma was then separated and assayed for APTT. The concentration of FXaI was calculated from a calibration curve of APTT versus FXaI concentration which was constructed in vitro by adding various amounts of FXaI to a plasma pool from untreated mice FIG. 5B.

[6] = system: thrombin; assay: thrombin inhibition assay according to Lottenberg et al.; assay type: biochemical
Method: The refolded and dialyzed protein so obtained was assayed for FXa inhibitory activity by the biochemical chromogenic assay described in Example 2. The results are shown in Table 6 as milliunits per mg protein (mu/mg). The amount of protein causing 50% inhibition in an assay mixture containing 2 nM FXa is defined as 1 mu. In addition, the refolded protein was also tested for its inhibitory effect on thrombin, another proteolytic enzyme of the coagulation cascade, which was assayed according to Lottenberg et al. Methods Enzymol. 80:341-361 (1981).

[7] = system: plasma; assay: APTT doubling by recombinant mature FXaI; assay type: biochemical
Method: The inhibitory activity of FXaI was also assayed as the increase of the activated partial thromboplastin time (APTT) essentially as described in Spaethe, Haemostasis, AHS/Deutschland GmbH, Munich (1984), using as reagent Actin FS (Dade), which contains ellagic acid for activation of Factors XII and Factor XI, and soy bean phospholipid. Under these conditions, and in the presence of 20 mM CaCl2, only the intrinsic pathway of coagulation is activated.

With “naturally occurring FXaI: FXa inhibitor protein isolated from dilute leech saliva (DLS) of the leech Hirudo medicinalis; 14 kD monomer” the inhibition of thrombin [1] was “not inhibited”, the “Inhibitory activity (specific activity), FXa” value ([2]; 1 mu = amount causing 50% inhibition with 2 nM FXa) was 507 mu/mg and the IC50 ([2]; chromogenic assay, read-out: IC50 (protein concentration for 50% inhibition)) was 10 to 20 nM. The inhibition of plasmin [3] was “not inhibited”, the Ki ([4]; 50 pM FXa, 1.35 μM prothrombin, read-out: Ki in prothrombinase complex assay, modified protocol) was 0.12 nM and the IC50 ([4]; 250 pM FXa, 2.67 μM prothrombin) was 0.19 nM. For the same molecule, the Ki ([4]; 250 pM FXa, 2.67 μM prothrombin, read-out: Ki in prothrombinase complex assay) was 0.072 nM, the “FXaI calculated from the calibration curve” value (“FXaI calculated” for short) ([5]; 1 min post-injection) was 0.3150 µg and the “FXaI calculated” value ([5]; 3 min post-injection) was 0.243 µg and 0.174 µg. The “FXaI calculated” value ([5]; 10 min post-injection) was 0.1245 µg, the “FXaI calculated” value ([5]; 30 min post-injection) was 0 µg and the “Mean APTT” value ([5]; 1 min post-injection) was 91 s. For the same molecule, the “Mean APTT” value ([5]; 3 min post-injection) was 79 s and 66 s, the “Mean APTT” value ([5]; 10 min post-injection) was 55 s and the “Mean APTT” value ([5]; 30 min post-injection) was 29 s and 30 s. The “half life of plasma inhibitor activity” value ([5]; mice, intravenous, 5.25 μg protein/mouse) was “about 7.5 min” and the “Inhibitory activity (specific activity), Thrombin” value [6] was less than 1 mu/mg.

B1: mature FXaI: recombinant FXaI obtained by enterokinase cleavage of the pFSHI-6 prepeptide, about 15 kD (protein)
chain: YEVIYVDDPCEDSDCEDGNKCSPVTNECDCSPVRCRLHCNFYVKDSNGCETCACEPKCKHKNCPTGHHCNKLTNKCELKKQRRMG
For B1, the “FXa inhibitory specific activity” value ([2]; after removal of the extension peptide from the cleavage solution by chromatography) was no more than 8000 mu/mg protein, the “FXa inhibitory specific activity” value ([2]; following cleavage with enterokinase) was 4000-4500 mu/mg protein and the “concentration causing doubling of the APTT” value [7] was 12.2 µg/mL.
